In the supplement of paper PMC13380429:

What was measured:
Details in all cases: 72 h
Vero E6 [1] = test: cell viability relative to DMSO; higher = less toxic
U2OS [2] = test: as above
HepG2 [3] = test: as above
Caco-2 [4] = test: as above
Calu-3 [5] = test: as above
Vero E6 [6] = test: relative viability EC50 (midpoint between 100% and the lowest measured viability); higher = less toxic
U2OS [7] = test: as above
HepG2 [8] = test: as above
Caco-2 [9] = test: as above
Calu-3 [10] = test: as above
Vero E6 [11] = test: drug sensitivity score (DSS) for viability; higher = more toxic; extreme values may be limits of the assay
U2OS [12] = test: as above
HepG2 [13] = test: as above
Caco-2 [14] = test: as above
Calu-3 [15] = test: as above

| SMILES | cell viability (Vero E6 [1]; 1 nM) [%] | cell viability (Vero E6 [1]; 10 nM) [%] | cell viability (Vero E6 [1]; 100 nM) [%] | cell viability (Vero E6 [1]; 1000 nM) [%] | cell viability (Vero E6 [1]; 10000 nM) [%] | cell viability (U2OS [2]; 1 nM) [%] | cell viability (U2OS [2]; 10 nM) [%] | cell viability (U2OS [2]; 100 nM) [%] | cell viability (U2OS [2]; 1000 nM) [%] | cell viability (U2OS [2]; 10000 nM) [%] | cell viability (HepG2 [3]; 1 nM) [%] | cell viability (HepG2 [3]; 10 nM) [%] | cell viability (HepG2 [3]; 100 nM) [%] | cell viability (HepG2 [3]; 1000 nM) [%] | cell viability (HepG2 [3]; 10000 nM) [%] | cell viability (Caco-2 [4]; 1 nM) [%] | cell viability (Caco-2 [4]; 10 nM) [%] | cell viability (Caco-2 [4]; 100 nM) [%] | cell viability (Caco-2 [4]; 1000 nM) [%] | cell viability (Caco-2 [4]; 10000 nM) [%] | cell viability (Calu-3 [5]; 1 nM) [%] | cell viability (Calu-3 [5]; 10 nM) [%] | cell viability (Calu-3 [5]; 100 nM) [%] | cell viability (Calu-3 [5]; 1000 nM) [%] | cell viability (Calu-3 [5]; 10000 nM) [%] | relative viability EC50 (Vero E6 [6]) [µM] | relative viability EC50 (U2OS [7]) [µM] | relative viability EC50 (HepG2 [8]) [µM] | relative viability EC50 (Caco-2 [9]) [µM] | relative viability EC50 (Calu-3 [10]) [µM] | drug sensitivity score (Vero E6 [11]) | drug sensitivity score (U2OS [12]) | drug sensitivity score (HepG2 [13]) | drug sensitivity score (Caco-2 [14]) | drug sensitivity score (Calu-3 [15]) |
| --- | --- | --- | --- | --- | --- | --- | --- | --- | --- | --- | --- | --- | --- | --- | --- | --- | --- | --- | --- | --- | --- | --- | --- | --- | --- | --- | --- | --- | --- | --- | --- | --- | --- | --- | --- |
| O=C1c2c(O)cc(O)cc2O[C@H](c2ccc(O)c(O)c2)[C@H]1O [taxifolin] | 94.4 | 99.4 | 94.2 | 97.6 | 104 | 95.2 | 96.5 | 92.9 | 96.2 | 89.9 | 101 | 94.4 | 98.5 | 100 | 97.5 | 91.5 | 106 | 105 | 104 | 96 | 101 | 110 | 90.1 | 102 | 99.5 | > 10 | > 10 | > 10 | > 10 | > 10 | 0 | 0 | 0 | 0 | 0 |
| C=C1/C(=C\C=C2/CCC[C@]3(C)[C@@H]([C@H](C)CCCC(C)(C)O)CC[C@@H]23)C[C@@H](O)C[C@@H]1O [calcitriol] | 106 | 102 | 104 | 98.1 | 97.8 | 100 | 104 | 95.9 | 103 | 92.8 | 116 | 112 | 102 | 92.6 | 96.2 | 101 | 104 | 105 | 101 | 92.5 | 100 | 106 | 96.7 | 101 | 96.8 | > 10 | > 10 | > 10 | > 10 | > 10 | 0 | 0 | 0 | 0 | 0 |
| OCCC#Cc1nc(-c2ccc(F)cc2)c(-c2ccncc2)n1CCCc1ccccc1 | 92.5 | 99.7 | 87 | 85 | 100 | 95.9 | 92 | 94.7 | 90.1 | 79.7 | 90.4 | 99.5 | 105 | 99.6 | 93.9 | 98.4 | 106 | 91.6 | 91.6 | 78.6 | 101 | 100 | 83.6 | 90.2 | 79.7 | > 10 | > 10 | > 10 | > 10 | > 10 | 0 | 1.1 | 0 | 1.2 | 2.2 |
| O=C1C(O)=C(O)C(=O)C(O)=C1O [tetroquinone] | 98.3 | 100 | 97.6 | 96.7 | 95.1 | 99.9 | 99.5 | 97.8 | 99.8 | 104 | 97.9 | 100 | 101 | 106 | 91.7 | 103 | 99.6 | 96.9 | 104 | 97.6 | 97.3 | 98.2 | 98.1 | 87.1 | 93.3 | > 10 | > 10 | > 10 | > 10 | > 10 | 0 | 0 | 0 | 0 | 0 |
